According to US20110054033A1, “METHODS OF USING ABSCISIC ACID FOR AMELIORATING HYPERTENSION AND VASCULAR INFLAMMATION” (Virginia Tech Intellectual Properties, Inc., priority 2009, published 2011):

Legend:
E-selectin = experiment: Aortic gene expression by real-time RT-PCR: E-selectin; format: in vivo, mice; conditions: P=0.20
Experimental: FIG. 6 are graphs showing that ABA decreases immune cell infiltration in aortas of ApoE−/− mice and reduces pro-inflammatory gene expression. ApoE −/− mice were fed high fat diets created with or without 100 mg/kg diet racemic abscisic acid (ABA). (A) Infiltration of F4/80^+CD11b^+ macrophages and CD4^+ T-cells into the aorta were assessed with flow cytometry. Gene expression in the aorta of pro-inflammatory markers (B) vascular cell adhesion molecule 1 (VCAM-1), (C) monocyte chemoattractant protein 1 (MCP-1), (D) E-selectin, (F) peroxisome proliferator-activated receptor γ (PPAR γ), and (G) CD36 were measured as a ratio to the housekeeping gene β-actin. (H) MCP-1 protein concentrations (pg/mL) were measured by ELISA. Data were analyzed as a completely randomized design.
(§1) Total RNA was isolated from aortas using the RNA isolation Minikit (Qiagen) according to the manufacturer's instructions. […] Each gene amplicon was purified with the MiniElute PCR Purification Kit (Qiagen) and quantitated on an agarose gel by using a DNA mass ladder (Promega). […]
(§2) Complementary DNA (cDNA) concentrations for genes of interest were examined by real-time quantitative PCR using an iCycler IQ System and the iQ SYBR green supermix (Bio-Rad). […] Results are presented as a starting quantity of target cDNA (picograms) per microgram of total RNA. […]

db/db mice = conditions: Guri et al., cited from earlier work
15-lipoxygenase (15-LOX) = experiment: Aortic gene expression by real-time RT-PCR: 15-LOX; format: in vivo, mice; conditions: day 84, ratio to β-actin
Experimental: FIG. 4 are photos and graphs showing aortas collected on day 84 of dietary intervention. Representative photomicrographs (100×) of aortic root specimens from (A) control and (B) ABA-fed mice. (C) Analysis of lumenal areas and (D) tunica media areas were performed with aortic cross-sections using Image Pro Plus software. (E) Aortic thickness was analyzed as a ratio of the intima to the media. Gene expression in the aorta of (F) endothelial nitric oxide synthase (eNOS) and (G) 15-lipoxygenase (15-LOX) were measured as a ratio to the house-keeping gene β-actin. Data were analyzed as a completely randomized design.
as §1, with “instructions. Total RNA (1 μg) was used to generate a complementary DNA (cDNA) template using the iScript cDNA Synthesis Kit (Bio-Rad, Hercules, Calif.).” for “instructions.”
as §2

Compound: CC1=CC(=O)CC(C)(C)C1(O)/C=C/C(C)=C\C(=O)O (racemic) [ABA, abscisic acid]
- E-selectin mRNA expression in the aortic roots vs control (E-selectin): reduced, though not to statistical significance
- Glucose tolerance (db/db mice; db/db mice, 2007 and 2008): improved glucose tolerance
- Macrophage infiltration into white adipose tissue (db/db mice; obese db/db mice, 2008): significantly reduces macrophage infiltration
- Reduction in MCP-1 expression in the adipose tissue stromal-vascular fraction (db/db mice; obese db/db mice, 2008): approximately 15 fold
- Aortic expression of 15-lipoxygenase mRNA vs control (15-lipoxygenase (15-LOX)): significantly elevated
